Data published in PubChem BioAssay AID1963962 (Molecular Pharmacology Branch, DTP, NCI, 2024).

Tested on: 967376-340-R-J2-PDC multicell spheroid viability
Experiment: Anticancer human tumor 967376-340-R-J2-PDC patient-derived colon adenocarcinoma cell line growth inhibition [PI3K]
Details: for IC50: curve of first compound; for viability, T/C: stronger effect = lower value
Method in brief: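 Spheroid viability read-out. Co-cultures contained the tumor line plus HUVEC and human MSCs. Each agent was paired with a PI3K inhibitor (inavolisib, alpelisib, duvelisib, copanlisib) across half-log dilutions starting at clinical Cmax, or at 10 microM when Cmax was unknown.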

[1] = second compound 0.00316 µM, first compound 0.0316 µM
[2] = second compound 0.00316 µM, first compound 0.1 µM
[3] = second compound 0.00316 µM, first compound 0.316 µM
[4] = second compound 0.00316 µM, first compound 1 µM
[5] = second compound 0.00316 µM, first compound 3.16 µM
[6] = second compound 0.00316 µM, first compound 10 µM
[7] = second compound 0.01 µM, first compound 0.0316 µM
[8] = second compound 0.01 µM, first compound 0.1 µM
[9] = second compound 0.01 µM, first compound 0.316 µM
[10] = second compound 0.01 µM, first compound 1 µM
[11] = second compound 0.01 µM, first compound 3.16 µM
[12] = second compound 0.01 µM, first compound 10 µM
[13] = second compound 0.0316 µM, first compound 0.0316 µM
[14] = second compound 0.0316 µM, first compound 0.1 µM
[15] = second compound 0.0316 µM, first compound 0.316 µM
[16] = second compound 0.0316 µM, first compound 1 µM
[17] = second compound 0.0316 µM, first compound 3.16 µM
[18] = second compound 0.0316 µM, first compound 10 µM
[19] = second compound 0.1 µM, first compound 0.0316 µM
[20] = second compound 0.1 µM, first compound 0.1 µM
[21] = second compound 0.1 µM, first compound 0.316 µM
[22] = second compound 0.1 µM, first compound 1 µM
[23] = second compound 0.1 µM, first compound 3.16 µM
[24] = second compound 0.1 µM, first compound 10 µM
[25] = second compound 0.316 µM, first compound 0.0316 µM
[26] = second compound 0.316 µM, first compound 0.1 µM
[27] = second compound 0.316 µM, first compound 0.316 µM
[28] = second compound 0.316 µM, first compound 1 µM
[29] = second compound 0.316 µM, first compound 3.16 µM
[30] = second compound 0.316 µM, first compound 10 µM
[31] = second compound 1 µM, first compound 0.0316 µM
[32] = second compound 1 µM, first compound 0.1 µM
[33] = second compound 1 µM, first compound 0.316 µM
[34] = second compound 1 µM, first compound 1 µM
[35] = second compound 1 µM, first compound 3.16 µM
[36] = second compound 1 µM, first compound 10 µM
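Also: spheroids exposed to agents for 7 days before read-out.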
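For viability, T/C in this document: luminescence used as surrogate of cell viability.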

Compound: CC(C)NCC(C(=O)N1CCN(c2ncnc3c2C(C)CC3O)CC1)c1ccc(Cl)cc1 (stereo unspecified) + CC(Nc1ccc2c(c1)OCCn1cc(N3C(=O)OCC3C(F)F)nc1-2)C(N)=O
- IC50 (second compound 0.00316 µM): > 10 µM
- IC50 (second compound 0.01 µM): > 10 µM
- IC50 (second compound 0.0316 µM): > 10 µM
- IC50 (second compound 0.1 µM): > 10 µM
- IC50 (second compound 0.316 µM): > 10 µM
- IC50 (second compound 1 µM): 7.61 µM
- viability, T/C [1]: 98.4%
- viability, T/C [2]: 118%
- viability, T/C [3]: 71.2%
- viability, T/C [4]: 76.8%
- viability, T/C [5]: 91.9%
- viability, T/C [6]: 77.9%
- viability, T/C [7]: 79.3%
- viability, T/C [8]: 86.5%
- viability, T/C [9]: 74.4%
- viability, T/C [10]: 84.7%
- viability, T/C [11]: 83.4%
- viability, T/C [12]: 81.2%
- viability, T/C [13]: 68.5%
- viability, T/C [14]: 90.4%
- viability, T/C [15]: 59.4%
- viability, T/C [16]: 77.1%
- viability, T/C [17]: 73.5%
- viability, T/C [18]: 60.9%
- viability, T/C [19]: 60.1%
- viability, T/C [20]: 82%
- viability, T/C [21]: 68.6%
- viability, T/C [22]: 72.4%
- viability, T/C [23]: 83.9%
- viability, T/C [24]: 64%
- viability, T/C [25]: 57.5%
- viability, T/C [26]: 60.7%
- viability, T/C [27]: 57.6%
- viability, T/C [28]: 65.5%
- viability, T/C [29]: 57.8%
- viability, T/C [30]: 62.8%
- viability, T/C [31]: 51.4%
- viability, T/C [32]: 59.2%
- viability, T/C [33]: 67.6%
- viability, T/C [34]: 60.8%
- viability, T/C [35]: 57.3%
- viability, T/C [36]: 37.2%

Compound: CC1(C)CCC(CN2CCN(c3ccc(C(=O)NS(=O)(=O)c4ccc(NCC5CCOCC5)c([N+](=O)[O-])c4)c(Oc4cnc5[nH]ccc5c4)c3)CC2)=C(c2ccc(Cl)cc2)C1 + CC(Nc1ccc2c(c1)OCCn1cc(N3C(=O)OCC3C(F)F)nc1-2)C(N)=O
- IC50 (second compound 0.00316 µM): > 10 µM
- IC50 (second compound 0.01 µM): > 10 µM
- IC50 (second compound 0.0316 µM): > 10 µM
- IC50 (second compound 0.1 µM): > 10 µM
- IC50 (second compound 0.316 µM): 7.82 µM
- IC50 (second compound 1 µM): 4.85 µM
- viability, T/C [1]: 106%
- viability, T/C [2]: 67.9%
- viability, T/C [3]: 97.2%
- viability, T/C [4]: 98%
- viability, T/C [5]: 102%
- viability, T/C [6]: 61.1%
- viability, T/C [7]: 107%
- viability, T/C [8]: 75.7%
- viability, T/C [9]: 79.9%
- viability, T/C [10]: 78.6%
- viability, T/C [11]: 81.2%
- viability, T/C [12]: 57.3%
- viability, T/C [13]: 67.3%
- viability, T/C [14]: 86.5%
- viability, T/C [15]: 82.2%
- viability, T/C [16]: 88.9%
- viability, T/C [17]: 75.9%
- viability, T/C [18]: 81.5%
- viability, T/C [19]: 70.6%
- viability, T/C [20]: 80.5%
- viability, T/C [21]: 79.1%
- viability, T/C [22]: 84.7%
- viability, T/C [23]: 95.7%
- viability, T/C [24]: 58.8%
- viability, T/C [25]: 68.3%
- viability, T/C [26]: 81.5%
- viability, T/C [27]: 58.2%
- viability, T/C [28]: 76.2%
- viability, T/C [29]: 71.2%
- viability, T/C [30]: 44.5%
- viability, T/C [31]: 56.7%
- viability, T/C [32]: 48.1%
- viability, T/C [33]: 57.2%
- viability, T/C [34]: 49.9%
- viability, T/C [35]: 67.8%
- viability, T/C [36]: 36.2%

Compound: C[C@@H](NC(=O)c1ncnc(N)c1Cl)c1ncc(C(=O)Nc2cc(C(F)(F)F)c(Cl)cn2)s1 + CC(Nc1ccc2c(c1)OCCn1cc(N3C(=O)OCC3C(F)F)nc1-2)C(N)=O
- IC50 (second compound 0.00316 µM): > 10 µM
- IC50 (second compound 0.01 µM): > 10 µM
- IC50 (second compound 0.0316 µM): > 10 µM
- IC50 (second compound 0.1 µM): > 10 µM
- IC50 (second compound 0.316 µM): > 10 µM
- IC50 (second compound 1 µM): > 10 µM
- viability, T/C [1]: 105%
- viability, T/C [2]: 74.9%
- viability, T/C [3]: 73.3%
- viability, T/C [4]: 91.9%
- viability, T/C [5]: 80.4%
- viability, T/C [6]: 97.9%
- viability, T/C [7]: 83.9%
- viability, T/C [8]: 98.7%
- viability, T/C [9]: 101%
- viability, T/C [10]: 94.8%
- viability, T/C [11]: 97.1%
- viability, T/C [12]: 130%
- viability, T/C [13]: 62.2%
- viability, T/C [14]: 107%
- viability, T/C [15]: 69%
- viability, T/C [16]: 98.9%
- viability, T/C [17]: 95.2%
- viability, T/C [18]: 109%
- viability, T/C [19]: 72.9%
- viability, T/C [20]: 67.8%
- viability, T/C [21]: 63.6%
- viability, T/C [22]: 77.7%
- viability, T/C [23]: 75.2%
- viability, T/C [24]: 66%
- viability, T/C [25]: 65.5%
- viability, T/C [26]: 70.6%
- viability, T/C [27]: 78.2%
- viability, T/C [28]: 73.5%
- viability, T/C [29]: 77.2%
- viability, T/C [30]: 70.9%
- viability, T/C [31]: 69.4%
- viability, T/C [32]: 62.2%
- viability, T/C [33]: 56%
- viability, T/C [34]: 57.9%
- viability, T/C [35]: 69.9%
- viability, T/C [36]: 62%
